Reference: US12240854B2, “TRAF 6 inhibitors” (Helmholtz Zentrum München - Deutsches Forschungszentrum für …, priority 2018, dated 2025)
Entries after “also recorded” stand apart in the source; their conditions may differ. Read-outs that look alike come from different tables or passages of the source.

How the values were obtained:
[1] = target: T1, TRAF6-Ubc13 binding in HEK293T cells (Homo sapiens, UniProt Q9Y4K3); test: Co-immunoprecipitation of HA-TRAF6 and Ubc13 in HEK 293T cells; assay type: cell-based
T1 construct: RING-Zincfinger1 (RZ1) domain (residues 50-159) of human TRAF6 wildtype; expressed in transfected cells; host or cells: HEK 293T
T1 sequence (Q9Y4K3 50-159): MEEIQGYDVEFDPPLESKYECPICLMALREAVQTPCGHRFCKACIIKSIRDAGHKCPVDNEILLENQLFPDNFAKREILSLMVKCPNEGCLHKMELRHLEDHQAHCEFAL
Method: To study the interaction of TRAF6 and Ubc13 in cells, 1×10^6 293T cells were seeded and after 18 hours cells were transfected with 1 μg pEF-HA empty or pEF-HA-TRAF6 RZ1 plasmid using the X-tremeGENE HP DNA transfection reagent (Roche). 6 hours upon transfection, cells were treated with compound or DMSO. After 42 hours further incubation, cells were harvested in Co-IP lysis buffer and HA-TRAF6 was immunoprecipitated with anti-HA affinity matrix (Roche). Binding of Ubc13 to TRAF6 was examined in Western Blot analysis.

[2] = target: T2, TRAF6WTStrepII-Ubc13FH interaction (Homo sapiens, UniProt Q9Y4K3); test: ALPHAScreen TRAF6-Ubc13 interaction assay; assay type: binding
T2 construct: RING-Zincfinger1 (RZ1) domain (residues 50-159) of human TRAF6 wildtype; made in house; host or cells: E. coli BL21 codon plus RIPL
T2 sequence (Q9Y4K3 with tags, fused parts or gaps): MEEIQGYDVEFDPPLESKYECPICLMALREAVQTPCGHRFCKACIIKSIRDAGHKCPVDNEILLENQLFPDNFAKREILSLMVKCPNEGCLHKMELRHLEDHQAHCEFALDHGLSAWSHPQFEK
Description: In order to identify small molecules that specifically target the RZ1 domain of TRAF6 and thereby prevent its binding to Ubc13, the ALPHAScreen technology (PerkinElmer) was chosen to detect TRAF6WTStrepII-Ubc13FH interaction in High-Throughput-Screenings as well as Structure Activity Relationship (SAR) analysis.
For performance of an automated ALPHAScreen assay, all following components were pre-diluted in ALPHAScreen buffer (1×PBS, 0.5% BSA, 0.01% Tween-20). First, the TRAF6 protein (end concentration 100 nM, 30 μL volume) was added to 384-well-opti-plates involving the MultiFlo dispensing system (BioTek) followed by transfer of the compounds via the Sciclone G3 transfer station (PerkinElmer). After addition of Ubc13FH (end concentration 75 nM, 10 μL volume) with the MultiFlo system and incubation for one hour at room temperature, both beads (Strep-Tactin Alpha Donor beads and Nickel-Chelate acceptor beads; end concentrations 4 μg each, 10 μL volume each) were mixed and added using the MultiFlo system in subdued light. Read-out of the plates occurred after another hour of incubation at room temperature. Statistical parameters including the coefficient of variation, Z′ factor and signal window were calculated to determine the quality of the HTS campaign. To evaluate the efficacy of the compounds, ALPHAScreen units of compound-treated samples were referred to DMSO control treated samples. Thereby, the TRAF6D57K mutant served as the control for minimum signal and was included on every plate of the screening. Compounds that inhibited TRAF6WTStrepII-Ubc13FH by more than 25% were considered as actives. After elimination of ALPHAScreen frequent hitter compounds and His-tag frequent hitters (Schorpp, K., I. Rothenaigner, E. Salmina, et al., Identification of Small-Molecule Frequent Hitters from AlphaScreen High-Throughput Screens. J Biomol Screen, 2014. 19(5): p. 715-26), 178 compounds were defined as primary hits and were subsequently tested in five-point serial dilution assays (2.5-40 μM) in TRAF6WTStrepII-Ubc13FH ALPHAScreen experiments. Only compounds with dose-dependent effects on TRAF6WTStrepII-Ubc13FH (n=27) were taken for further research. For analog testing, all compounds were analyzed in ten-point titration (0.2-100 μM) in TRAF6WTStrepII-Ubc13FH ALPHAScreen experiments. In parallel, the compounds were tested in the ALPHAScreen TruHits Kit (PerkinElmer) to rule out unspecific interference with the ALPHAScreen technology.

Row | inhibition of TRAF6-Ubc13 interaction in ALPHAScreen (in words) [2] | SMILES | interaction of endogenous Ubc13 with HA-tagged TRAF6 (co-immunoprecipitation) [1] | interaction of endogenous Ubc13 with HA-tagged TRAF6 (co-immunoprecipitation) ([1]; listed as HZM06-04) | interaction of endogenous Ubc13 with HA-tagged TRAF6 (co-immunoprecipitation) ([1]; listed as HZM06-08) | interaction of endogenous Ubc13 with HA-tagged TRAF6 (co-immunoprecipitation) ([1]; listed as HZM06-09)
1 | most prominent effect | Cc1nn(-c2ccc3nnc(C)n3n2)c(C)c1CCC(=O)N1CCC(Cc2ccccc2)C1 (centres unmarked) [HZM06-4, 1-(3-benzylpyrrolidin-1-yl)-3-(3,5-dimethyl-1-(3-methyl-[1,2,4]triazolo[4,3-b]pyridazin-6-yl)-1H-pyrazol-4-yl)propan-1-one] | also active in cells; also recorded: most active analogs | demonstrated inhibition of TRAF6-Ubc13 binding |  | 
2 |  | COc1cccc(CC2CCN(C(=O)CCc3c(C)nn(-c4ccc5nnc(C)n5n4)c3C)CC2)c1 [HZM06-8, 1-(4-(3-methoxybenzyl)piperidin-1-yl)-3-(3,5-dimethyl-1-(3-methyl-[1,2,4]triazolo[4,3-b]pyridazin-6-yl)-1H-pyrazol-4-yl)propan-1-one] | also active in cells; also recorded: most active analogs |  | demonstrated inhibition of TRAF6-Ubc13 binding | 
3 |  | Cc1nn(-c2ccc3nnc(C)n3n2)c(C)c1CCC(=O)N1CCC(Cc2ccc(F)cc2)CC1 [HZM06-9, 1-(4-(4-fluorobenzyl)piperidin-1-yl)-3-(3,5-dimethyl-1-(3-methyl-[1,2,4]triazolo[4,3-b]pyridazin-6-yl)-1H-pyrazol-4-yl)propan-1-one] | also active in cells; also recorded: most active analogs |  |  | demonstrated inhibition of TRAF6-Ubc13 binding
4 |  | Cc1nn(-c2ccc3nnc(C)n3n2)c(C)c1CCC(=O)N1CCC(Cc2ccccn2)CC1 [HZM06-10, 3-(3,5-dimethyl-1-(3-methyl-[1,2,4]triazolo[4,3-b]pyridazin-6-yl)-1H-pyrazol-4-yl)-1-(4-((pyridin-2-yl)methyl)piperidin-1-yl)propan-1-one] | also active in cells |  |  | 
